Assay results: patent US20180256673A1, “METHODS FOR TREATING FUNGAL INFECTIONS” (priority 2015, published 2018)
Values after ≈ are worked out from the molar mass of the structure shown. Like-named read-outs stand apart in the source and are kept apart here.

Columns and labels:
[1] = test system: C. glabrata vaginal isolates; assay: Susceptibility testing of VVC clinical isolates at pH 7 and 4 (CLSI M27-A3); type: cell-based, Candida glabrata; conditions: for MIC90: Nakaseomyces glabratus, 21 isolates, read-out: MIC90
[2] = test system: C. albicans vaginal isolates; assay: as above; type: cell-based, Candida albicans; conditions: for Number of isolates at MIC 0.25 μg/mL / Number of isolates at MIC 0.5 μg/mL / Number of isolates at MIC 1 μg/mL / Number of isolates at MIC 2 μg/mL / Number of isolates at MIC 4 μg/mL / Number of isolates at MIC ≥4 μg/mL / Number of isolates at MIC 0.125 μg/mL: 60 VVC isolates; for MIC / MIC90: Candida albicans; for MIC: read-out: MIC; for MIC90: 60 isolates, read-out: MIC90
[3] = test system: Candida albicans; assay: Broth microdilution of invasive fungal isolates (CLSI M27-A3/M38-A2); type: cell-based; conditions: CLSI breakpoints
[4] = test system: azole-resistant Candida albicans R357 strain; assay: microbe, parasite or virus in culture; type: cell-based

OC(Cn1cncn1)(Cn1cncn1)c1ccc(F)cc1F [FLU, fluconazole]
Number of isolates at MIC 2 μg/mL ([1]; 21 VVC isolates, 24 h, pH 4): 5 | Number of isolates at MIC 4 μg/mL ([1]; 21 VVC isolates, 24 h, pH 4): 3 | Number of isolates at MIC ≥4 μg/mL ([1]; 21 VVC isolates, 24 h, pH 4): 13 | Number of isolates at MIC 0.5 μg/mL ([1]; 21 VVC isolates, 24 h, pH 7): 4 | Number of isolates at MIC 1 μg/mL ([1]; 21 VVC isolates, 24 h, pH 7): 2 | Number of isolates at MIC 2 μg/mL ([1]; 21 VVC isolates, 24 h, pH 7): 5 | Number of isolates at MIC 4 μg/mL ([1]; 21 VVC isolates, 24 h, pH 7): 2 | Number of isolates at MIC ≥4 μg/mL ([1]; 21 VVC isolates, 24 h, pH 7): 8 | Number of isolates at MIC 2 μg/mL ([1]; 21 VVC isolates, 48 h, pH 4): 1 | Number of isolates at MIC 4 μg/mL ([1]; 21 VVC isolates, 48 h, pH 4): 2 | Number of isolates at MIC ≥4 μg/mL ([1]; 21 VVC isolates, 48 h, pH 4): 18 | Number of isolates at MIC 1 μg/mL ([1]; 21 VVC isolates, 48 h, pH 7): 3 | Number of isolates at MIC 2 μg/mL ([1]; 21 VVC isolates, 48 h, pH 7): 4 | Number of isolates at MIC 4 μg/mL ([1]; 21 VVC isolates, 48 h, pH 7): 2 | Number of isolates at MIC ≥4 μg/mL ([1]; 21 VVC isolates, 48 h, pH 7): 12 | MIC90 ([1]; pH 4, 24 h): 64 µg/mL (≈ 209 µM) | MIC90 ([1]; pH 4, 48 h): > 64 µg/mL | MIC90 ([1]; pH 7, 24 h): 16 µg/mL (≈ 52.2 µM) | MIC90 ([1]; pH 7, 48 h): > 64 µg/mL | Number of isolates at MIC 0.25 μg/mL ([2]; 24 h, pH 4): 35 | Number of isolates at MIC 0.5 μg/mL ([2]; 24 h, pH 4): 13 | Number of isolates at MIC 1 μg/mL ([2]; 24 h, pH 4): 2 | Number of isolates at MIC 2 μg/mL ([2]; 24 h, pH 4): 2 | Number of isolates at MIC 4 μg/mL ([2]; 24 h, pH 4): 1 | Number of isolates at MIC ≥4 μg/mL ([2]; 24 h, pH 4): 7 | Number of isolates at MIC 0.125 μg/mL ([2]; 24 h, pH 7): 25 | Number of isolates at MIC 0.25 μg/mL ([2]; 24 h, pH 7): 19 | Number of isolates at MIC 0.5 μg/mL ([2]; 24 h, pH 7): 7 | Number of isolates at MIC 1 μg/mL ([2]; 24 h, pH 7): 1 | Number of isolates at MIC 2 μg/mL ([2]; 24 h, pH 7): 2 | Number of isolates at MIC ≥4 μg/mL ([2]; 24 h, pH 7): 6 | Number of isolates at MIC 0.5 μg/mL ([2]; 48 h, pH 4): 27 | Number of isolates at MIC 1 μg/mL ([2]; 48 h, pH 4): 13 | Number of isolates at MIC 2 μg/mL ([2]; 48 h, pH 4): 5 | Number of isolates at MIC 4 μg/mL ([2]; 48 h, pH 4): 1 | Number of isolates at MIC ≥4 μg/mL ([2]; 48 h, pH 4): 14 | Number of isolates at MIC 0.125 μg/mL ([2]; 48 h, pH 7): 3 | Number of isolates at MIC 0.25 μg/mL ([2]; 48 h, pH 7): 37 | Number of isolates at MIC 0.5 μg/mL ([2]; 48 h, pH 7): 8 | Number of isolates at MIC 1 μg/mL ([2]; 48 h, pH 7): 2 | Number of isolates at MIC 2 μg/mL ([2]; 48 h, pH 7): 1 | Number of isolates at MIC ≥4 μg/mL ([2]; 48 h, pH 7): 9 | MIC ([2]; 48 h, pH 4, fluconazole-resistant isolate 1, pH 4, 48 h): > 64 µg/mL | MIC ([2]; 48 h, pH 4, fluconazole-resistant isolate 2, pH 4, 48 h): 32 µg/mL (≈ 104 µM) | MIC ([2]; 48 h, pH 4, fluconazole-resistant isolate 3, pH 4, 48 h): > 64 µg/mL | MIC ([2]; 48 h, pH 4, fluconazole-resistant isolate 4, pH 4, 48 h): > 64 µg/mL | MIC ([2]; 48 h, pH 4, fluconazole-resistant isolate 5, pH 4, 48 h): > 64 µg/mL | MIC ([2]; 48 h, pH 4, fluconazole-resistant isolate 6, pH 4, 48 h): > 64 µg/mL | MIC ([2]; 48 h, pH 4, fluconazole-resistant isolate 7, pH 4, 48 h): 32 µg/mL (≈ 104 µM) | MIC ([2]; 48 h, pH 4, fluconazole-resistant isolate 8, pH 4, 48 h): > 64 µg/mL | MIC ([2]; 48 h, pH 4, fluconazole-resistant isolate 9, pH 4, 48 h): > 64 µg/mL | MIC ([2]; 48 h, pH 4, fluconazole-resistant isolate 10, pH 4, 48 h): 64 µg/mL (≈ 209 µM) | MIC ([2]; 48 h, pH 7, fluconazole-resistant isolate 1, pH 7, 48 h): 16 µg/mL (≈ 52.2 µM) | MIC ([2]; 48 h, pH 7, fluconazole-resistant isolate 2, pH 7, 48 h): 16 µg/mL (≈ 52.2 µM) | MIC ([2]; 48 h, pH 7, fluconazole-resistant isolate 3, pH 7, 48 h): 16 µg/mL (≈ 52.2 µM) | MIC ([2]; 48 h, pH 7, fluconazole-resistant isolate 4, pH 7, 48 h): 8 µg/mL (≈ 26.1 µM) | MIC ([2]; 48 h, pH 7, fluconazole-resistant isolate 5, pH 7, 48 h): > 64 µg/mL | MIC ([2]; 48 h, pH 7, fluconazole-resistant isolate 6, pH 7, 48 h): 0.25 µg/mL (≈ 0.816 µM) | MIC ([2]; 48 h, pH 7, fluconazole-resistant isolate 7, pH 7, 48 h): 16 µg/mL (≈ 52.2 µM) | MIC ([2]; 48 h, pH 7, fluconazole-resistant isolate 8, pH 7, 48 h): 32 µg/mL (≈ 104 µM) | MIC ([2]; 48 h, pH 7, fluconazole-resistant isolate 9, pH 7, 48 h): > 64 µg/mL | MIC ([2]; 48 h, pH 7, fluconazole-resistant isolate 10, pH 7, 48 h): 16 µg/mL (≈ 52.2 µM) | MIC90 ([2]; pH 4, 24 h): 8 µg/mL (≈ 26.1 µM) | MIC90 ([2]; pH 4, 48 h): > 64 µg/mL | MIC90 ([2]; pH 7, 24 h): 8 µg/mL (≈ 26.1 µM) | MIC90 ([2]; pH 7, 48 h): 16 µg/mL (≈ 52.2 µM) | % of isolates with fluconazole resistance [3]: 2.0% | Susceptibility (CLSI) ([4]; C. albicans R357): R | MIC ([4]; Candida albicans): > 64 µg/mL
